# Source: patent publication US7589174B2, “GRP94-based compositions and methods of use thereof” (The Children's Hospital of Philadelphia, priority 2003, dated 2009)
# Like-named read-outs stand apart in the source and are kept apart here.
# B1: N34-355: Recombinant GRP94 fragment, amino acids 34-355, N-terminal His6 tag and factor Xa site, expressed in E. coli (protein)
# chain: PYNGTGSAIQLDGLNASQIRELREKSEKFAFQAEVNRMMKLIINSLYKNKEIFLRELISNASDALDKIRLISLTDENALSGNEELTVKIKCDKEKNLLHVTDTGVGMTREELVKNLGTIAKSGTSEFLNKMTEAQEDGQSTSELIGQFGVGFYSAFLVADKVIVTSKHNNDTQHIWESDSNEFSVIADPRGNTLGRGTTITLVLKEEASDYLELDTIKNLVKKYSQFINFPIYVWSSKTETVEEPMEEEEAAKEEKEESDDEAAVEEEEEEKKPKTKKVEKTVWDWELMNDIKPIWQRPSKEVEEDEYKAFYKSFSKESDDPMAYIHFT
# modifications: left off: small tags and cut ends
# notes: Recombinant GRP94 fragment, amino acids 34-355, N-terminal His6 tag and factor Xa site, expressed in E. coli
# B2: GRP94 bound to tumor peptides: GRP94 complexed with tumor peptides, used to vaccinate mice (Srivastava's lab) (protein, UniProt P08113 22-802, looked up)
# Endoplasmin: DDEVDVDGTVEEDLGKSREGSRTDDEVVQREEEAIQLDGLNASQIRELREKSEKFAFQAEVNRMMKLIINSLYKNKEIFLRELISNASDALDKIRLISLTDENALAGNEELTVKIKCDKEKNLLHVTDTGVGMTREELVKNLGTIAKSGTSEFLNKMTEAQEDGQSTSELIGQFGVGFYSAFLVADKVIVTSKHNNDTQHIWESDSNEFSVIADPRGNTLGRGTTITLVLKEEASDYLELDTIKNLVRKYSQFINFPIYVWSSKTETVEEPLEEDEAAKEEKEESDDEAAVEEEEEEKKPKTKKVEKTVWDWELMNDIKPIWQRPSKEVEEDEYKAFYKSFSKESDDPMAYIHFTAEGEVTFKSILFVPTSAPRGLFDEYGSKKSDYIKLYVRRVFITDDFHDMMPKYLNFVKGVVDSDDLPLNVSRETLQQHKLLKVIRKKLVRKTLDMIKKIADEKYNDTFWKEFGTNIKLGVIEDHSNRTRLAKLLRFQSSHHSTDITSLDQYVERMKEKQDKIYFMAGSSRKEAESSPFVERLLKKGYEVIYLTEPVDEYCIQALPEFDGKRFQNVAKEGVKFDESEKTKESREATEKEFEPLLNWMKDKALKDKIEKAVVSQRLTESPCALVASQYGWSGNMERIMKAQAYQTGKDISTNYYASQKKTFEINPRHPLIRDMLRRIKEDEDDKTVMDLAVVLFETATLRSGYLLPDTKAYGDRIERMLRLSLNIDPEAQVEEEPEEEPEDTSEDAEDSEQDEGEEMDAGTEEEEEETEKESTEKDEL
# modifications: complexed with tumor peptides
# B3: H125D: N34-355 with His125 mutated to Asp (protein, UniProt P14625 34-355, looked up, variant H125D)
# chain: DLGKSREGSRTDDEVVQREEEAIQLDGLNASQIRELREKSEKFAFQAEVNRMMKLIINSLYKNKEIFLRELISNASDALDKIRLISLTDENALSGNEELTVKIKCDKEKNLLDVTDTGVGMTREELVKNLGTIAKSGTSEFLNKMTEAQEDGQSTSELIGQFGVGFYSAFLVADKVIVTSKHNNDTQHIWESDSNEFSVIADPRGNTLGRGTTITLVLKEEASDYLELDTIKNLVKKYSQFINFPIYVWSSKTETVEEPMEEEEAAKEEKEESDDEAAVEEEEEEKKPKTKKVEKTVWDWELMNDIKPIWQRPSKEVEEDEY
# modifications: fragment 34-355 His6 tag, factor Xa site
# notes: N34-355 with His125 mutated to Asp
# Experiments:
# [1] = target: T1, GRP94 (Mus musculus, UniProt P08113); test: Solid phase 96-well plate assay of peptide binding by recombinant GRP94 N-terminal fragments; design: His6 tagged N355, comprising of amino acids 34-355 of GRP94; made in house; host or cells: E. coli M15; species or system murine
# [2] = tested on: WT ES cells; conditions: 1 mM EGTA, FIG. 14E-F
# [3] = tested on: grp94-/- ES cells; conditions: 1 mM EGTA, FIG. 14E-F
# [4] = target: GRP94 (Homo sapiens, UniProt P14625); test: GRP94 binding of antigenic peptides (Table 3)
# Sequence of GRP94 (Homo sapiens, UniProt P14625) (P14625 22-803, species assumed): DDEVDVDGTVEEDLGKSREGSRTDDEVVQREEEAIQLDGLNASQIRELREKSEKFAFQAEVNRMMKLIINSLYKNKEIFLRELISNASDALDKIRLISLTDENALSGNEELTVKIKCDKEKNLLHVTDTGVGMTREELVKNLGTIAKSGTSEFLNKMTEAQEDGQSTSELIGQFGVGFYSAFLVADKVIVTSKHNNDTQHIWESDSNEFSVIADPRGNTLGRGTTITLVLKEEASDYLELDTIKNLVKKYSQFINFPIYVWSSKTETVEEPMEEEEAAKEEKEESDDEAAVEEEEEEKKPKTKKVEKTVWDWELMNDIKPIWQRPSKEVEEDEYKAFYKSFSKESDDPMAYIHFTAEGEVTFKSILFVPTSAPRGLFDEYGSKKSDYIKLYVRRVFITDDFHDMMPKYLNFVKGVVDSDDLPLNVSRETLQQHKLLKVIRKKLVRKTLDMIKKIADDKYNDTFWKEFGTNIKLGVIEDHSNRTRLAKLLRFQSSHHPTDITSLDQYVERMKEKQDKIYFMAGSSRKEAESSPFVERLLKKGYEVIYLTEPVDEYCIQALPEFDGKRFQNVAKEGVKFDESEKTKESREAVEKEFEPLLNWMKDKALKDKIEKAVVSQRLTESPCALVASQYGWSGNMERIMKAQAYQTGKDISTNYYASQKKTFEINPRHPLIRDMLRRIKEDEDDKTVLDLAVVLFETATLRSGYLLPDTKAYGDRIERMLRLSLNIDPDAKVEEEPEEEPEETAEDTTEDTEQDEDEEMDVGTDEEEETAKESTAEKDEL
# [5] = target: T1, GRP94; design: a truncated version of GRP94, containing amino acids 1-355; made in house; host or cells: insect cells; conditions: full-length GRP94, ref [14]; cited from earlier work
# [6] = tested on: GRP94; conditions: vast molar excess of peptide, 10 min 50° C. treatment of the protein
# [7] = tested on: GRP94; test: Solid phase 96-well plate assay of peptide binding by recombinant GRP94 N-terminal fragments; design: species or system murine
# [8] = tested on: purified mouse dendritic cells; test: Binding and uptake of GRP94 N-terminal domain by dendritic cells; type: cell-based; conditions: bound at 40° C., warmed to 37° C., into endosomal vesicles, FIG. 16
# [9] = tested on: tumors; conditions: vaccinated mice, Blachere et al. 1997; cited from earlier work
# [10] = tested on: radicicol-binding pocket of GRP94; test: Radicicol binding judged by conformational change on blue native gel electrophoresis; design: species or system murine; conditions: 300 μM radicicol or DMSO
# [11] = antigenic peptides that can be loaded on GRP94
molecule,measurement,setting,value
"CCOC(=O)OC(=O)OCC [DEPC, Diethyl pyrocarbonate]",Effect of histidine modification on peptide-binding activity of N34-355,"[1]; His6 tag cleaved, peptide A-coated plates, 0.7 μg protein per well, FIG. 6C",abolished
O=C(O)CN(CCOCCOCCN(CC(=O)O)CC(=O)O)CC(=O)O [EGTA],"Growth under Ca++-chelating conditions, WT cells",[2],can grow for 5 days
same,"Growth under Ca++-chelating conditions, -/- cells",[3],cannot grow
NO [Hydroxylamine],Effect of histidine modification on peptide-binding activity of N34-355,[1],restored the activity
c1c[nH]cn1 [imidazole],IC50,"[1]; N34-355 binding to peptide A, FIG. 6B, read-out: Imidazole concentration that reduced peptide binding by half",6 mM
FLWGPRALV [MAGE 3],GRP94 binding,[4]; [11],yes
Glucose Regulated Protein 94 [GRP94],Fraction of the protein shown to bind peptides,[5],about 1%
same,Fraction of the protein that can be loaded with peptide,[6],up to 85%
KRQIYTDLEMNRLGK [PepA],Binder or non-binder of GRP94 in the peptide binding assay,[1],binder
RAHYNIVTF (RAH),GRP94 binding,[4],"yes, weak"
RGYVYQGL [VSV8],GRP94 binding,[4],yes
same,Binder or non-binder of GRP94 in the peptide binding assay,[1],binder
SIINFEKL [OVA 257-264],GRP94 binding,[4]; [11],yes
B1,Inhibition of peptide binding activity by pre-treatment with radicicol,[7],inhibited significantly
same,Uptake by dendritic cells,[8],internalized
same,Binding of VSV8 peptide (dose binding curve),"[1]; VSV8-coated plates, compared with N1-355, FIG. 1B",binding curve very similar to that of N1-355
B2,Improvement of T cell responses on tumor challenge compared to control mice,[9],10-200 fold
B3,Peptide binding activity,"[7]; peptide A-coated plates, 0.7 or 2 μg protein, FIG. 7A",almost no peptide binding activity
same,"Radicicol binding (conformational change, native gel mobility, 9G10 epitope)",[10],retained its ability to bind the inhibitor radicicol
